# In the supplement of paper PMC8671470:
# Test system: myeloid leukemia patient primary cells Pat.2
# Assay: cell viability (% survival relative to DMSO control); higher = less cytotoxic
# Details: 10000 nM; 72 h
# Summary of the method: (§1)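 Thawed, Ficoll-purified mononuclear cells from AML or CML patients in RPMI 1640 with 10% FBS were seeded at 10,000 cells/well on 384-well plates pre-printed with 70 compounds at five tenfold concentrations, 1–10,000 nM, in duplicate, for 72 h. Viability was read by CellTiter-Glo and normalised to DMSO and 10 μM proteasome-inhibitor wells. Where given, area under the curve came from four-parameter log-logistic fits (drc, PharmacoGx R packages).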
row,Structure (SMILES),cell viability [%]
1,O=C(O)CC[N+](=O)[O-] [3-nitropropionic acid],83.7
2,O=C(/C=C/c1ccc(O)c(O)c1)OCCc1ccccc1 [Caffeic acid phenethyl ester],64
3,CCN(CC)C(=S)SSC(=S)N(CC)CC [Disulfiram],3.7
4,c1cc(-c2cnn3cc(-c4ccc(OCCN5CCCCC5)cc4)cnc23)ccn1 [Dorsomorphin],59.4
5,CN(Cc1cnc2nc(N)nc(N)c2n1)c1ccc(C(=O)N[C@@H](CCC(=O)O)C(=O)O)cc1 [Methotrexate],63.1
6,CN(CCOc1ccc(Cc2sc(O)nc2O)cc1)c1ccccn1 [Rosiglitazone],83.4

# Test system: myeloid leukemia patient primary cells Pat.15
# Assay: as above
# Details: 1 nM; 72 h
# Summary of the method: as §1
row,Structure (SMILES),cell viability [%]
1,O=c1cc(N2CCOCC2)oc2c(-c3ccccc3)cccc12,77.5
2,O=C1C(SCCO)=C(SCCO)C(=O)c2ccccc21,82.6
3,Cn1cc(-c2ccncc2)c(-c2ccc(OCc3ccc4ccccc4n3)cc2)n1,94.3
4,O=C(O)CC[N+](=O)[O-] [3-nitropropionic acid],92.7
5,O=C(/C=C/c1ccc(O)c(O)c1)OCCc1ccccc1 [Caffeic acid phenethyl ester],96.5
6,CCN(CC)C(=S)SSC(=S)N(CC)CC [Disulfiram],96.8
7,c1cc(-c2cnn3cc(-c4ccc(OCCN5CCCCC5)cc4)cnc23)ccn1 [Dorsomorphin],88.3
8,CN(Cc1cnc2nc(N)nc(N)c2n1)c1ccc(C(=O)N[C@@H](CCC(=O)O)C(=O)O)cc1 [Methotrexate],95.4
9,CN(CCOc1ccc(Cc2sc(O)nc2O)cc1)c1ccccn1 [Rosiglitazone],93.1

# Same assay, conditions: 10 nM; 72 h
row,Structure (SMILES),cell viability [%]
1,O=c1cc(N2CCOCC2)oc2c(-c3ccccc3)cccc12,> 100
2,O=C1C(SCCO)=C(SCCO)C(=O)c2ccccc21,89.3
3,Cn1cc(-c2ccncc2)c(-c2ccc(OCc3ccc4ccccc4n3)cc2)n1,84.7
4,O=C(O)CC[N+](=O)[O-] [3-nitropropionic acid],79.1
5,O=C(/C=C/c1ccc(O)c(O)c1)OCCc1ccccc1 [Caffeic acid phenethyl ester],85.8
6,CCN(CC)C(=S)SSC(=S)N(CC)CC [Disulfiram],87.7
7,c1cc(-c2cnn3cc(-c4ccc(OCCN5CCCCC5)cc4)cnc23)ccn1 [Dorsomorphin],90.6
8,CN(Cc1cnc2nc(N)nc(N)c2n1)c1ccc(C(=O)N[C@@H](CCC(=O)O)C(=O)O)cc1 [Methotrexate],89.3
9,CN(CCOc1ccc(Cc2sc(O)nc2O)cc1)c1ccccn1 [Rosiglitazone],95

# Same assay, conditions: 100 nM; 72 h
row,Structure (SMILES),cell viability [%]
1,O=c1cc(N2CCOCC2)oc2c(-c3ccccc3)cccc12,97
2,O=C1C(SCCO)=C(SCCO)C(=O)c2ccccc21,63.2
3,Cn1cc(-c2ccncc2)c(-c2ccc(OCc3ccc4ccccc4n3)cc2)n1,97.6
4,O=C(O)CC[N+](=O)[O-] [3-nitropropionic acid],98.7
5,O=C(/C=C/c1ccc(O)c(O)c1)OCCc1ccccc1 [Caffeic acid phenethyl ester],96.1
6,CCN(CC)C(=S)SSC(=S)N(CC)CC [Disulfiram],9.1
7,c1cc(-c2cnn3cc(-c4ccc(OCCN5CCCCC5)cc4)cnc23)ccn1 [Dorsomorphin],95.6
8,CN(Cc1cnc2nc(N)nc(N)c2n1)c1ccc(C(=O)N[C@@H](CCC(=O)O)C(=O)O)cc1 [Methotrexate],> 100
9,CN(CCOc1ccc(Cc2sc(O)nc2O)cc1)c1ccccn1 [Rosiglitazone],91.5

# Same assay, conditions: 1000 nM; 72 h
row,Structure (SMILES),cell viability [%]
1,O=c1cc(N2CCOCC2)oc2c(-c3ccccc3)cccc12,81.7
2,O=C1C(SCCO)=C(SCCO)C(=O)c2ccccc21,2.59
3,Cn1cc(-c2ccncc2)c(-c2ccc(OCc3ccc4ccccc4n3)cc2)n1,83.1
4,O=C(O)CC[N+](=O)[O-] [3-nitropropionic acid],94.9
5,O=C(/C=C/c1ccc(O)c(O)c1)OCCc1ccccc1 [Caffeic acid phenethyl ester],64.9
6,CCN(CC)C(=S)SSC(=S)N(CC)CC [Disulfiram],1.3
7,c1cc(-c2cnn3cc(-c4ccc(OCCN5CCCCC5)cc4)cnc23)ccn1 [Dorsomorphin],92.5
8,CN(Cc1cnc2nc(N)nc(N)c2n1)c1ccc(C(=O)N[C@@H](CCC(=O)O)C(=O)O)cc1 [Methotrexate],80.5
9,CN(CCOc1ccc(Cc2sc(O)nc2O)cc1)c1ccccn1 [Rosiglitazone],77.7

# Same assay, conditions: 10000 nM; 72 h
row,Structure (SMILES),cell viability [%]
1,O=c1cc(N2CCOCC2)oc2c(-c3ccccc3)cccc12,10.2
2,O=C1C(SCCO)=C(SCCO)C(=O)c2ccccc21,0.4
3,Cn1cc(-c2ccncc2)c(-c2ccc(OCc3ccc4ccccc4n3)cc2)n1,75.2
4,O=C(O)CC[N+](=O)[O-] [3-nitropropionic acid],2.04
5,O=C(/C=C/c1ccc(O)c(O)c1)OCCc1ccccc1 [Caffeic acid phenethyl ester],40.5
6,CCN(CC)C(=S)SSC(=S)N(CC)CC [Disulfiram],0.0644
7,c1cc(-c2cnn3cc(-c4ccc(OCCN5CCCCC5)cc4)cnc23)ccn1 [Dorsomorphin],24.9
8,CN(Cc1cnc2nc(N)nc(N)c2n1)c1ccc(C(=O)N[C@@H](CCC(=O)O)C(=O)O)cc1 [Methotrexate],91.1
9,CN(CCOc1ccc(Cc2sc(O)nc2O)cc1)c1ccccn1 [Rosiglitazone],70

# Test system: myeloid leukemia patient primary cells Pat.3
# Assay: area under dose-response curve (viability, 1 nM-10 uM) (fraction (0-1)); higher = more sensitive
# Details: 72 h
# Procedure: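 AUC (0–1, higher = more sensitive) of the 5-point dose–response (1 nM–10 µM, 72 h, CellTiter-Glo) in primary AML/CML patient mononuclear cells. 0.030103 is the floor for inactive compounds.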
row,Structure (SMILES),area under dose-response curve
1,O=c1cc(N2CCOCC2)oc2c(-c3ccccc3)cccc12,< 0.0301
2,O=C1C(SCCO)=C(SCCO)C(=O)c2ccccc21,0.33
3,Cn1cc(-c2ccncc2)c(-c2ccc(OCc3ccc4ccccc4n3)cc2)n1,0.219
4,O=C(O)CC[N+](=O)[O-] [3-nitropropionic acid],0.133
5,O=C(/C=C/c1ccc(O)c(O)c1)OCCc1ccccc1 [Caffeic acid phenethyl ester],0.467
6,CCN(CC)C(=S)SSC(=S)N(CC)CC [Disulfiram],0.164
7,c1cc(-c2cnn3cc(-c4ccc(OCCN5CCCCC5)cc4)cnc23)ccn1 [Dorsomorphin],0.0457
8,CN(Cc1cnc2nc(N)nc(N)c2n1)c1ccc(C(=O)N[C@@H](CCC(=O)O)C(=O)O)cc1 [Methotrexate],0.469
